Patent US20230076527A1, “TREATMENT OF PAROXYSMAL NOCTURNAL HEMOGLOBINURIA” (Apellis Pharmaceuticals, Inc., priority 2020, published 2023)
“And” between values parts separate entries of the source, which are not always exact repeats. Equal entries are not always repeated.

Tests used:
patients with PNH [1] = experiment: PEGASUS 48-week safety; conditions: 48-week study
patients with PNH [2] = experiment: PEGASUS post hoc hematologic response categorization; format: in vivo, human; conditions: 16 weeks
Excerpt: Complete response: no transfusions required, stable Hb in the normal range, and no evidence of hemolysis (i.e., LDH ≤1.5× upper limit of normal [ULN], ARC ≤150,000 /µL). Major response: no transfusion, normal Hb, but with evidence of hemolysis (LDH >1.5×ULN and/or ARC >150,000 /µL). Good response: no transfusion, but with chronic mild anemia or evidence of hemolysis. Partial response: chronic moderate anemia and/or occasional transfusions (<3 units/6 months). Minor response: regular transfusions required (3-6 units/6 months). No response: regular and frequent transfusions required (>6 units/6 months).

patients with PNH [3] = experiment: PEGASUS 48-week efficacy results (open-label period); format: in vivo, human
Experimental: Day 1 to Week 16 was defined as the Randomized Controlled Period, over which endpoints were assessed. After completion of the Randomized Controlled Period (the end of Week 16), all subjects continue into a 32-week Open-Label Study Drug Period in which all subjects receive twice-weekly doses of Study Drug (1,080 mg). During this period, subjects return to the clinical site on Weeks 17, 18, 20, 22 and 24 and every 4 weeks, thereafter, until Week 48 for efficacy and safety assessments.

PNH Type II + III RBCs = experiment: PEGASUS pharmacodynamics: C3 loading and clone size of PNH red blood cells; format: in vivo, human; conditions: week 16 versus baseline
Excerpt: FIGS. 9B and 9C includes descriptive analysis of observed values, based only on those subjects who had both baseline and week 16 data.

[4] = tested on: patients with PNH previously treated with eculizumab; experiment: Matching-adjusted indirect comparison of pegcetacoplan (PEGASUS) versus ravulizumab (302 study); format: in vivo, human; conditions: PEGASUS Week 16 vs 302 study Week 26, after matching
Excerpt: Both studies share similar eligibility criteria. However, PEGASUS also required patients to have hemoglobin <10.5 g/dL and absolute reticulocyte count >1.0x the upper limit of normal; these criteria were not applicable in the 302 study. To adjust for cross-study differences in baseline characteristics, propensity score weighting was utilized to balance baseline demographic and clinical characteristics. Outcomes assessed included: transfusion avoidance, total number of units of packed red blood cells (PRBCs) transfused, hemoglobin stabilization, and change in Functional Assessment of Chronic Illness Therapy (FACIT)-Fatigue score. Outcomes were assessed from PEGASUS at Week 16 and from the 302 study at Week 26. Unadjusted mean and least squares mean change in FACIT-Fatigue score were compared for PEGASUS and the 302 study, respectively. Weighted Wald tests and 95% confidence intervals (CIs) were computed for comparisons of categorical and continuous outcomes (i.e., chi square and z tests, respectively).

patients with PNH [5] = experiment: PEGASUS Phase 3 trial, 16-week randomized controlled period: hematologic and fatigue efficacy endpoints; format: in vivo, human; conditions: for non-inferiority to eculizumab on absolute reticulocyte count / non-inferiority to eculizumab on transfusion avoidance: key secondary endpoint; for non-inferiority to eculizumab on absolute reticulocyte count: margin 10; for non-inferiority to eculizumab on transfusion avoidance: margin -20%
Excerpt: The PEGASUS trial protocol consisted of an 8-week screening period, a 52-week treatment period, and a 12-week follow up period.
The treatment period consisted of three parts: a 4-week run-in period, a 16-week Randomized Controlled Period and a 32-week open-label Study Drug only period.
During the Randomized Controlled Period, subjects returned to the clinical site at Weeks 1, 2, 4, 6, 8, 12 and 16 for efficacy and safety assessments.
The primary endpoint in the study was an increase in hemoglobin level from baseline to Week 16 (excluding data before the Randomized Controlled Period). Key secondary endpoints included transfusion avoidance, reduction in reticulocyte count, reduction in LDH level, and changes in Functional Assessment of Chronic Illness Therapy (FACIT)-fatigue scale score, Version 4. […] Hierarchical significance testing for secondary efficacy endpoints was gated on the success of the primary efficacy endpoint. Post hoc analyses included hemoglobin stabilization (defined as avoidance of a >1 g/dL decrease from baseline) in the absence of transfusions and hematologic response to treatment.
The between-treatment group comparison for the primary efficacy endpoint was performed using a mixed effect model for repeated measures (MMRM) (Mallinckrodt, DID 42:30 (2008)). The model included fixed categorical effects for treatment group, study visit, stratification variables (based on transfusion history and platelet count) and the study visit-bytreatment group interaction, as well as the continuous, fixed covariate of baseline Hb level.
The number and percentage of subjects with transfusion avoidance were tabulated by treatment group and compared between treatment groups using a stratified Cochran-Mantel Haenszel (CMH) chi-square test. The treatment difference in percentages and 95% confidence interval for the difference were presented using the stratified method (Miettinen, Statistics in Medicine 4:213-226 (1985)).
The change from baseline at Week 16 in reticulocyte count, LDH level and FACIT-fatigue scale score were analyzed using the same methods described for the primary analysis of the primary efficacy endpoint except using their own baseline as a covariate, using the ITT and mITT sets.
For any subject who discontinued study treatment, any values collected after discontinuation continued to be used in analyses (Treatment Policy).
Additionally, the primary endpoint of hemoglobin change from baseline (before first dose of pegcetacoplan) to week 16 and secondary endpoints (transfusion avoidance, change from baseline at week 16 in absolute reticulocyte count and lactate dehydrogenase) were analyzed by subgroups based on number of packed red blood cell transfusions (<4 vs ≥4) within the 12 months prior to Day -28 and platelet count at screening (<100,000 /mm^3 vs >100,000 /mm^3).

patients with PNH [6] = conditions: in vivo
Experimental: Pharmacokinetics and pharmacodynamics were also assessed, including change from baseline in percentage of PNH Type II + III RBCs at week 16, and change from baseline in percentage of PNH Type II + III RBCs opsonized with C3 at week 16. Incidence and severity of treatment-emergent adverse events (TEAEs), incidence of thromboembolic events, changes from baseline in laboratory parameters, and changes from baseline in electrocardiogram (ECG) parameters were also assessed.
The primary endpoint was assessed on ITT set (included all subjects who were randomized), and change from Baseline to Week 16 in Hb level was measured. […] Safety Analysis was conducted in the safety set (which included all subjects who were randomized and received at least 1 dose of monotherapy Study Drug).
Subjects were divided into various sets. The Run-in Set included all subjects who received at least one dose of APL-2. The Intent-to-Treat (ITT) Set included all subjects who were randomized. The analyses using this set was based upon the randomized treatment group allocated. The Safety Set included all subjects who were randomized and received at least 1 dose of monotherapy Study Drug. This set was used for safety analyses. The analyses using this set were based upon the actual treatment received. The Modified ITT (mITT) Set included all subjects in the ITT set who received at least one dose of monotherapy beyond their Week 4 after randomization in the Randomized Controlled Period. The analyses using this set were based upon the randomized treatment group allocated. […] Subjects were required to receive their randomized treatment to be included in the set and so analyses using this set were by default based upon the actual treatment group allocated. The Completer Set consisted of all subjects in the ITT set who completed the Week 16 efficacy assessment for the study. The analyses using this set were based upon the randomized treatment group allocated.

[7] = week 16, <4 transfusions stratum
[8] = week 16, <100,000 /mm^3 platelet stratum
[9] = week 16, censored for transfusion
[10] = week 16, ≥4 transfusions stratum
[11] = week 16, ≥100,000 /mm^3 platelet stratum

Which results are given for “Poly(oxy-1,2-ethanediyl), α-hydro-ω-hydroxy-, 15,15ʹ -diester with N-acetyl-L-isoleucyl-L-cysteinyl-L-valyl-1-methyl-L-tryptophyl-L-glutaminyl-L-α-aspartyl-L-tryptophylglycyl-L-alanyl-L-histidyl-L-arginyl-L-cysteinyl-L-threonyl-2-[2-(2-aminoethoxy)ethoxy]acetyl-N^6-carboxy-L-lysinamide cyclic (2-->12)-(disulfide) [pegcetacoplan]”?
cases of meningitis (patients with PNH [1]): No cases; diarrhea (patients with PNH [1]): 21%; discontinuations due to hemolysis (patients with PNH [1]): five; hemolysis (adverse event) (patients with PNH [1]): 24%; injection site reactions (patients with PNH [1]): 36%; patients who experienced a serious adverse event (patients with PNH [1]; 24 of 80 pegcetacoplan monotherapy-treated patients): 30%; deaths (patients with PNH [1]; due to COVID-19, unrelated to study treatment): One death; SAEs assessed to be possibly related to study treatment (patients with PNH [1]; five of the SAEs): 6%; patients who discontinued due to adverse events (patients with PNH [1]; twelve out of 80 patients): 15%; complete hematologic responses (patients with PNH [2]; ITT): 39%; good hematologic responses (patients with PNH [2]; ITT): 31.7%; minor hematologic responses (patients with PNH [2]; ITT): 4.9%; no hematologic response (patients with PNH [2]; ITT): 0%; partial hematologic responses (patients with PNH [2]; ITT): 14.6%; patients achieving at least a good hematological response (patients with PNH [2]; 29/41 pegcetacoplan, 2/39 eculizumab): 70.7%; hemoglobin, mean improvement from baseline (patients with PNH [3]; Week 48): 2.7 g/dL; patients who remained transfusion free (patients with PNH [3]; throughout the 48-week study): 73%; hemoglobin, mean increase from baseline as stated in Example 3 (patients with PNH [3]; week 16): 2.7 g/dL; C3 loading on Type III RBCs (PNH Type II + III RBCs): decreased; PNH clone size (Type II + III) (PNH Type II + III RBCs): increased; comparative effectiveness versus ravulizumab (MAIC, anchored on eculizumab) [4]: improvement in transfusion avoidance, hemoglobin stabilization, and fatigue, and a reduction in the total number of units of PRBCs transfused; patients achieving at least a three-point improvement in FACIT-fatigue score (patients with PNH [5]; 16 weeks): 73%; patients achieving reticulocyte normalization (patients with PNH [5]; 16 weeks, 30-120 × 10^9 cells/L): 78%; patients achieving LDH normalization (patients with PNH [5]; 16 weeks, normal range 113-226 U/L): 71%; transfusion avoidance, adjusted risk difference versus eculizumab (patients with PNH [5]; <4 transfusions group, 95% CI 26.2%-81.3%): 53.8%; FACIT-fatigue score, adjusted mean change from baseline to Week 16 (patients with PNH [5]; MMRM): 9.2; absolute reticulocyte count, adjusted mean decrease from baseline to week 16 (patients with PNH [5]; baseline 217×10^9 /L): 1.35e+11 L⁻¹; non-inferiority to eculizumab on absolute reticulocyte count (patients with PNH [5]): Non-inferiority was met; non-inferiority to eculizumab on absolute reticulocyte count (patients with PNH [5]; listed as Pegcetacoplan): met non-inferiority; non-inferiority to eculizumab on transfusion avoidance (patients with PNH [5]): Non-inferiority was met; non-inferiority to eculizumab on transfusion avoidance (patients with PNH [5]; listed as Pegcetacoplan): met non-inferiority; subjects who required transfusions post randomization (patients with PNH [5]; out of 41 (pegcetacoplan group), out of 39 (eculizumab group)): 6 subjects; proportion of transfusion-free patients (patients with PNH [5]; over 16 weeks, <4 transfusions within 12 months prior to Day -28): 85%; transfusion avoidance (transfusion-free patients) (patients with PNH [5]; over 16 weeks, all patients): 85.4% and 85%; proportion of transfusion-free patients (patients with PNH [5]; over 16 weeks, platelet stratum <100,000 /mm^3): 83.3%; proportion of transfusion-free patients (patients with PNH [5]; over 16 weeks, platelet stratum ≥100,000 /mm^3): 86.2%; proportion of transfusion-free patients (patients with PNH [5]; over 16 weeks, ≥4 transfusions within 12 months prior to Day -28): 85.7% and 86%; transfusion avoidance, adjusted risk difference versus eculizumab (patients with PNH [5]; overall patients, 95% CI 48.3%-76.8%): 62.5%; hemoglobin higher than the eculizumab arm (patients with PNH [5]; week 16): 53%; mean hemoglobin change from baseline regardless of baseline platelet count strata (patients with PNH [5]; week 16): significantly increased; LDH LS mean change from baseline (patients with PNH [5]; [7]): -52.31 U/L; absolute reticulocyte count LS mean change from baseline (patients with PNH [5]; [7]): -152.59 × 10^9 cells/L; LDH LS mean change from baseline (patients with PNH [5]; [8]): -73.14 U/L; absolute reticulocyte count LS mean change from baseline (patients with PNH [5]; [8]): -147.17 × 10^9 cells/L; adjusted mean hemoglobin change from baseline (patients with PNH [5]; week 16, all patients, baseline 8.7 g/dL, post-transfusion data excluded): 2.4 g/dL; proportion of patients achieving hemoglobin normalization (patients with PNH [5]; [9]): 34%; proportion of patients achieving ≥2 g/dL improvement in hemoglobin (patients with PNH [5]; [9]): 61%; proportion of patients achieving hemoglobin stabilization (patients with PNH [5]; week 16, censored for transfusion, avoidance of >1 g/dL decrease from baseline): 85%; adjusted mean hemoglobin change from baseline (patients with PNH [5]; week 16, fewer than 4 transfusions within 12 months prior to Day -28, baseline 8.9 g/dL): 2.97 g/dL; indirect bilirubin level (patients with PNH [5]; week 16, including post-transfusion data): 13.8 µmol/L; non-inferiority to eculizumab in the change from baseline in LDH (patients with PNH [5]; week 16, margin 20): did not demonstrate non-inferiority; mean FACIT-fatigue score (patients with PNH [5]; week 16, observed data, baseline 32.2 (pegcetacoplan), 31.6 (eculizumab)): 41.8 (SD 9.61); improvement in adjusted means of hemoglobin versus eculizumab (patients with PNH [5]; week 16, p<0.0001, MMRM): 3.8 g/dL; LDH LS mean change from baseline (patients with PNH [5]; [10]): -54.99 U/L; absolute reticulocyte count LS mean change from baseline (patients with PNH [5]; [10]): -124.75 × 10^9 cells/L; LDH LS mean change from baseline (patients with PNH [5]; [11]): -41.96 U/L; absolute reticulocyte count LS mean change from baseline (patients with PNH [5]; [11]): -137.28 × 10^9 cells/L; LDH adjusted mean change from baseline (patients with PNH [5]; week 16, baseline 258 U/L (pegcetacoplan), 309 U/L (eculizumab)): -15 U/L; transfusion avoidance, adjusted risk difference versus eculizumab (patients with PNH [5]; ≥4 transfusions group, 95% CI 64.2%-98.5%): 81.4%; All Infections (patients with PNH [6]): 12 (29.3) n(%); Sepsis (patients with PNH [6]): 0 n(%)
